Assays:
KRAS G12D = KRAS G12D (Homo sapiens, UniProt P01116, G12D); experiment: GDP-GTP exchange assay (KRAS G12D); format: biochemical; settings: bodipy-GDP/GppNHp exchange with SOS1; 4 h pre-incubation, 2 h reaction;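 note: one dagger IC50 up to 100 nM and two daggers above 100 nM up to 1 μM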
Method in brief: (§1)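 IC50 came from a four-parameter fit of fluorescence loss (485/520 nm) as SOS1 (150 nM) swapped bodipy-GDP for GppNHp (500 μM) on 2.5 nM KRAS, final concentrations. Compounds were pre-incubated 4 h at r.t. (pH 7.5 Hepes, 10 mM MgCl2); exchange ran 2 h (G12D) or 3 h (G12V).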

KRAS G12V = KRAS G12V (Homo sapiens, UniProt P01116, G12V); experiment: GDP-GTP exchange assay (KRAS G12V); format: biochemical; settings: bodipy-GDP/GppNHp exchange with SOS1; 3 h incubation after GppNHp-SOS1;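 note: one dagger IC50 up to 100 nM and two daggers above 100 nM up to 1 μM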
Method in brief: as §1

[1] = Caco2 assay (permeability, Papp A-B); format: in vitro ADME; settings: human, Caco-2, absorptive direction (A-B), 50 μM test compound, 4% BSA in receiver
Method in brief: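 Absorptive (A-B) Papp: 50 μM test compound in HBSS added to apical side of 22-25-day Caco-2 monolayers (TEER 300 Ω·cm^2), receiver buffer containing 4% BSA. After 120 min at 37 °C, 5% CO2, both sides analysed by LCMS; Papp calculated from flux rate normalized to area and donor amount.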

KRAS G12V, sequence (P01116 1-188 isoform P01116-2 G12V): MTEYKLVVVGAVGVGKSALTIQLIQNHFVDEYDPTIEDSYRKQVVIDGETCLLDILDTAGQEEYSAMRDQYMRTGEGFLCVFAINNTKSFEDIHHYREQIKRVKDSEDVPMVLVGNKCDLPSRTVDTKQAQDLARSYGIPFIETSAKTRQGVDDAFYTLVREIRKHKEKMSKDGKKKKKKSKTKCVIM
KRAS G12D, sequence (P01116 1-188 isoform P01116-2 G12D): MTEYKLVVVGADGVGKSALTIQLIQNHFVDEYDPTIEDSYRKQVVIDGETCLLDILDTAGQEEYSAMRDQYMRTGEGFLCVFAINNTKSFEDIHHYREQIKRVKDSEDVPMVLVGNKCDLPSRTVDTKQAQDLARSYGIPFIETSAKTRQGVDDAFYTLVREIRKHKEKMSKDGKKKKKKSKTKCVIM

Structure (SMILES)	G12D_exchange (KRAS_G12D exchange assay IC50) (KRAS G12D)	G12V_exchange (KRAS_G12V exchange assay IC50) (KRAS G12V)	Papp A→B at 120 min, 50 μM [1]
Cc1nc2c(F)c(-c3cccc(Cl)c3Cl)c(CCC#N)cc2c2c1cc([C@H]1[C@H]3C[C@H](CN(c4ncc(C5CC5)s4)C3)N1C(=O)C1CC1)n2[C@H]1[C@H]2CN[C@@H]1C2 (atropisomer, axis not shown; (Ra)) [Example 106, 3-((Ra)-1-((1R,4R,5S)-2-azabicyclo[2.1.1]hexan-5-yl)-2-((1S,5R,7R)-6-(cyclopropanecarbonyl)-3-(5-cyclopropylthiazol-2-yl)-3,6-diazabicyclo[3.2.1]octan-7-yl)-7-(2,3-dichlorophenyl)-6-fluoro-4-methyl-1H-pyrrolo[3,2-c]quinolin-8-yl)propanenitrile]	†	†	≤ 0.5 ×10⁻⁶ cm/s
Cc1noc(C)c1S(=O)(=O)N1C[C@@H]2C[C@H](C1)N(C(=O)C1CC1)[C@H]2c1cc2c(C)nc3c(F)c(-c4cccc(Cl)c4Cl)c(CCC#N)cc3c2n1[C@H]1[C@H]2CN[C@@H]1C2 (atropisomer, axis not shown; (Ra)) [Example 110, 3-((Ra)-1-((1R,4R,5S)-2-Azabicyclo[2.1.1]hexan-5-yl)-2-((1 S,5R,7R)-6-(cyclopropanecarbonyl)-3-((3,5-dimethylisoxazol-4-yl)sulfonyl)-3,6-diazabicyclo[3.2.1]octan-7-yl)-7-(2,3-dichlorophenyl)-6-fluoro-4-methyl-1H-pyrrolo[3,2-c]quinolin-8-yl)propanenitrile]	†	†	≤ 0.5 ×10⁻⁶ cm/s
Cc1nc2c(F)c(-c3cccc(Cl)c3Cl)c(CCC#N)cc2c2c1cc([C@H]1[C@H]3C[C@H](CN(S(=O)(=O)N4CCOCC4)C3)N1C(=O)C1CC1)n2[C@H]1[C@H]2CN[C@@H]1C2 (atropisomer, axis not shown; (Ra)) [Example 111, 3-((Ra)-1-((1R,4R,5S)-2-Azabicyclo[2.1.1]hexan-5-yl)-2-((1 S,5R,7R)-6-(cyclopropanecarbonyl)-3-(morpholinosulfonyl)-3,6-diazabicyclo[3.2.1]octan-7-yl)-7-(2,3-dichlorophenyl)-6-fluoro-4-methyl-1H-pyrrolo[3,2-c]quinolin-8-yl)propanenitrile]	††	†	≤ 0.5 ×10⁻⁶ cm/s
Cc1nc2c(F)c(-c3cccc(Cl)c3Cl)c(CCC#N)cc2c2c1cc(C1C3CC(CN(C4CCCCC4)C3=O)N1C(=O)C1CC1)n2C1C2CNC1C2 (atropisomer, axis not shown; (Ra)) [Example 113, 3-((Ra)-1-((1R,4R,5S)-2-Azabicyclo[2.1.1]hexan-5-yl)-2-((1R,5R,7R)-3-cyclohexyl-6-(cyclopropanecarbonyl)-2-oxo-3,6-diazabicyclo[3.2.1]octan-7-yl)-7-(2,3-dichlorophenyl)-6-fluoro-4-methyl-1H-pyrrolo[3,2-c]quinolin-8-yl)propanenitrile]	†††	†	≤ 0.5 ×10⁻⁶ cm/s

Further lines, results first:

G12D_exchange (KRAS_G12D exchange assay IC50) (KRAS G12D)	G12V_exchange (KRAS_G12V exchange assay IC50) (KRAS G12V)	Papp A→B at 120 min, 50 μM [1]	Structure (SMILES)
†	†	≤ 0.5 ×10⁻⁶ cm/s	Cc1nc2c(F)c(-c3cccc(Cl)c3Cl)c(CCC#N)cc2c2c1cc([C@H]1[C@H]3C[C@H](CN(c4cnsc4)C3)N1C(=O)C1CC1)n2[C@H]1[C@H]2CN[C@@H]1C2 (atropisomer, axis not shown; (Ra)) [Example 104, 3-((Ra)-1-((1R,4R,5S)-2-azabicyclo[2.1.1]hexan-5-yl)-2-((1S,5R,7R)-6-(cyclopropanecarbonyl)-3-(isothiazol-4-yl)-3,6-diazabicyclo[3.2.1]octan-7-yl)-7-(2,3-dichlorophenyl)-6-fluoro-4-methyl-1H-pyrrolo[3,2-c]quinolin-8-yl)propanenitrile]
†	†	≤ 0.5 ×10⁻⁶ cm/s	Cc1nc2c(F)c(-c3cccc(Cl)c3Cl)c(CCC#N)cc2c2c1cc([C@H]1[C@H]3C[C@H](CN(c4cc(C)n(C)n4)C3)N1C(=O)C1CC1)n2[C@H]1[C@H]2CN[C@@H]1C2 (atropisomer, axis not shown; (Ra)) [Example 105, 3-((Ra)-1-((1R,4R,5S)-2-azabicyclo[2.1.1]hexan-5-yl)-2-((1S,5R,7R)-6-(cyclopropanecarbonyl)-3-(1,5-dimethyl-1H-pyrazol-3-yl)-3,6-diazabicyclo[3.2.1]octan-7-yl)-7-(2,3-dichlorophenyl)-6-fluoro-4-methyl-1H-pyrrolo[3,2-c]quinolin-8-yl)propanenitrile]
†	†	≤ 0.5 ×10⁻⁶ cm/s	Cc1nc2c(F)c(-c3cccc(Cl)c3Cl)c(CCC#N)cc2c2c1cc([C@H]1[C@H]3C[C@H](CN(C(=O)C4CC4)C3)N1C(=O)C1CC1)n2[C@H]1[C@H]2CN[C@@H]1C2 (atropisomer, axis not shown; (Ra)) [Example 107, 3-((Ra)-1-((1R,4R,5S)-2-Azabicyclo[2.1.1]hexan-5-yl)-2-((1 S,5R,7R)-3,6-di(cyclopropanecarbonyl)-3,6-diazabicyclo[3.2.1]octan-7-yl)-7-(2,3-dichlorophenyl)-6-fluoro-4-methyl-1H-pyrrolo[3,2-c]quinolin-8-yl)propanenitrile]
†	†	≤ 0.5 ×10⁻⁶ cm/s	COC(=O)N1C[C@@H]2C[C@H](C1)N(C(=O)C1CC1)[C@H]2c1cc2c(C)nc3c(F)c(-c4cccc(Cl)c4Cl)c(CCC#N)cc3c2n1[C@H]1[C@H]2CN[C@@H]1C2 (atropisomer, axis not shown; (Ra)) [Example 108, Methyl (1 S,5R,7R)-7-((Ra)-1-((1R,4R,5S)-2-azabicyclo[2.1.1]hexan-5-yl)-8-(2-cyanoethyl)-7-(2,3-dichlorophenyl)-6-fluoro-4-methyl-1H-pyrrolo[3,2-c]quinolin-2-yl)-6-(cyclopropanecarbonyl)-3,6-diazabicyclo[3.2.1]octane-3-carboxylate]
††	†	≤ 0.5 ×10⁻⁶ cm/s	Cc1nc2c(F)c(-c3cccc(Cl)c3Cl)c(CCC#N)cc2c2c1cc(C1C3CC(CN(C)C3=O)N1C(=O)C1CC1)n2C1C2CNC1C2 (atropisomer, axis not shown; (Ra)) [Example 112, 3-((Ra)-1-((1R,4R,5S)-2-Azabicyclo[2.1.1]hexan-5-yl)-2-((1R,5R,7R)-6-(cyclopropanecarbonyl)-3-methyl-2-oxo-3,6-diazabicyclo[3.2.1]octan-7-yl)-7-(2,3-dichlorophenyl)-6-fluoro-4-methyl-1H-pyrrolo[3,2-c]quinolin-8-yl)propanenitrile]
†	†	≤ 0.5 ×10⁻⁶ cm/s	Cc1nc2c(F)c(-c3cccc(Cl)c3Cl)c(CCC#N)cc2c2c1cc([C@H]1[C@@H]3COC[C@@H](C3)N1C(=O)C1CC1)n2[C@H]1[C@H]2CN[C@@H]1C2 (atropisomer, axis not shown; (Ra)) [Example 115, 3-((Ra)-1-((1R,4R,5S)-2-Azabicyclo[2.1.1]hexan-5-yl)-2-((1R,5R,7R)-6-(cyclopropanecarbonyl)-3-oxa-6-azabicyclo[3.2.1]octan-7-yl)-7-(2,3-dichlorophenyl)-6-fluoro-4-methyl-1H-pyrrolo[3,2-c]quinolin-8-yl)propanenitrile]

Reference: patent US20250195536A1, “BICYCLOOCTANE KRAS INHIBITORS” (Incyte Corporation, priority 2023, published 2025)
